One may read the MIC50 as the lowest concentration that inhibits either 50% of growth or 50% of the strains tested, depending on the study. A low value points to higher susceptibility. The MIC90 is an inhibitory concentration at the 90% level, which refers to growth in some studies and to a panel of isolates in others. Usually MIC stands for the least concentration at which growth counts as inhibited. Lower therefore signals inhibition by little substance.

Values after ≈ are worked out from the molar mass of the structure shown. Active and inactive are the calls of the source. The calls are words filed in the database; no cut-off is given here.

The source of these data is ChEMBL document CHEMBL1255438, “Comparative activities of TR-700 (torezolid) against staphylococcal blood isolates collected in Spain” (2010).

Holding throughout (type): functional
The test system of experiment [1] is Staphylococcus aureus. The experiment can be described thus: Antimicrobial activity against oxacillin-resistant Staphylococcus aureus by CLSI method.
The test system of experiment [2] is Staphylococcus. Description: Antimicrobial activity against linezolid-susceptible coagulase-negative Staphylococcus assessed as percent susceptible strain by CLSI method.
Experiment [3] concerns Staphylococcus. The experiment can be described thus: Antimicrobial activity against linezolid-resistant coagulase-negative Staphylococcus assessed as percent susceptible strain by CLSI method.
Experiment [4] in a line: Antimicrobial activity against oxacillin-susceptible coagulase-negative Staphylococcus aureus assessed as percent susceptible strain by CLSI method.
In experiment [5] the test system is Staphylococcus. Description: Antimicrobial activity against Linezolid and methicillin-resistant coagulase-negative Staphylococcus by CLSI method.
The test system of experiment [6] is Staphylococcus. The experiment can be described thus: Antimicrobial activity against oxacillin-susceptible coagulase-negative Staphylococcus aureus by CLSI method.
Experiment [7] deals with Staphylococcus. The experiment can be described thus: Antimicrobial activity against oxacillin-resistant coagulase-negative Staphylococcus aureus by CLSI method.
Experiment [8] has as its system Staphylococcus aureus. The experiment can be described thus: Antimicrobial activity against linezolid-resistant Staphylococcus aureus assessed as percent susceptible strain by CLSI method.
The test system of experiment [9] is Staphylococcus. The experiment can be described thus: Antimicrobial activity against linezolid-susceptible coagulase-negative Staphylococcus by CLSI method.
Experiment [10] relates to Staphylococcus aureus. Description: Antimicrobial activity against linezolid-susceptible Staphylococcus aureus assessed as percent susceptible strain by CLSI method.
Experiment [11] relates to Staphylococcus aureus. The experiment can be described thus: Antimicrobial activity against linezolid-resistant Staphylococcus aureus by CLSI method.
The subject of experiment [12] is Staphylococcus aureus. Description: Antimicrobial activity against linezolid-susceptible Staphylococcus aureus by CLSI method.
The test system of experiment [13] is Staphylococcus. Description: Antimicrobial activity against linezolid-resistant coagulase-negative Staphylococcus by CLSI method.
The subject of experiment [14] is Staphylococcus aureus. The experiment can be described thus: Antimicrobial activity against oxacillin-susceptible Staphylococcus aureus assessed as percent susceptible strain by CLSI method.
For experiment [15], the system named is Staphylococcus aureus. The experiment can be described thus: Antimicrobial activity against oxacillin-susceptible Staphylococcus aureus by CLSI method.
The subject of experiment [16] is Staphylococcus aureus. Description: Antimicrobial activity against oxacillin-resistant Staphylococcus aureus assessed as percent susceptible strain by CLSI method.
The test system of experiment [17] is Staphylococcus aureus. Description: Antimicrobial activity against methicillin-resistant Staphylococcus aureus by CLSI method.

As to `CN[C@H](CC(C)C)C(=O)N[C@H]1C(=O)N[C@@H](CC(N)=O)C(=O)N[C@H]2C(=O)N[C@H]3C(=O)N[C@H](C(=O)N[C@H](C(=O)O)c4cc(O)cc(O)c4-c4cc3ccc4O)[C@H](O)c3ccc(c(Cl)c3)Oc3cc2cc(c3O[C@@H]2O[C@H](CO)[C@@H](O)[C@H](O)[C@H]2O[C@H]2C[C@](C)(N)[C@H](O)[C@H](C)O2)Oc2ccc(cc2Cl)[C@H]1O` [VANCOMYCIN], the MIC50 was 1 µg/mL (≈ 0.69 µM) in experiment [1]; 2 µg/mL (≈ 1.38 µM) in experiment [6]; 2 µg/mL (≈ 1.38 µM) in experiment [7]; 2 µg/mL (≈ 1.38 µM) in [9]; 2 µg/mL (≈ 1.38 µM) in [11]; 1 µg/mL (≈ 0.69 µM) in experiment [12]. The MIC50 in [13] was 2 µg/mL (≈ 1.38 µM); in experiment [15], 1 µg/mL (≈ 0.69 µM). The MIC90 in [1] is 2 µg/mL (≈ 1.38 µM); in [6], 2 µg/mL (≈ 1.38 µM); in [7], 2 µg/mL (≈ 1.38 µM); in [9], 2 µg/mL (≈ 1.38 µM); in experiment [12] it was 1 µg/mL (≈ 0.69 µM); in [15], 1 µg/mL (≈ 0.69 µM). Moreover, the Activity in experiment [2] is 100%; in [3], 100%; in experiment [4], 100%; in experiment [8] it was 100%; in experiment [10] it was 99.6%; in experiment [14], 100%. The Activity in experiment [16] was determined as 99.2%. In addition, in experiment [5], the MIC turned out to be 2 µg/mL (≈ 1.38 µM).

Take `CCCCCCCCCC(=O)N[C@@H](Cc1c[nH]c2ccccc12)C(=O)N[C@H](CC(N)=O)C(=O)N[C@@H](CC(=O)O)C(=O)N[C@@H]1C(=O)NCC(=O)N[C@@H](CCCN)C(=O)N[C@@H](CC(=O)O)C(=O)N[C@H](C)C(=O)N[C@@H](CC(=O)O)C(=O)NCC(=O)N[C@H](CO)C(=O)N[C@@H]([C@H](C)CC(=O)O)C(=O)N[C@@H](CC(=O)c2ccccc2N)C(=O)O[C@@H]1C`: the MIC50 in experiment [1] is 0.5 µg/mL (≈ 0.309 µM); in experiment [6], 0.25 µg/mL (≈ 0.154 µM); in experiment [7], 0.25 µg/mL (≈ 0.154 µM); in experiment [9], 0.25 µg/mL (≈ 0.154 µM); in [11], 0.5 µg/mL (≈ 0.309 µM); in experiment [12], 0.25 µg/mL (≈ 0.154 µM). In addition, the MIC50 in experiment [13] worked out at 0.5 µg/mL (≈ 0.309 µM); in experiment [15], 0.25 µg/mL (≈ 0.154 µM). In addition, the MIC90 in experiment [1], in experiment [6], in experiment [7], in experiment [9], in experiment [12] and in experiment [15] was 0.5 µg/mL (≈ 0.309 µM) in each case. In addition, the Activity in experiment [2], in experiment [4], in experiment [10] and in experiment [14] was 100% throughout. In experiment [5], this molecule came in with an MIC of 0.5 µg/mL (≈ 0.309 µM). Besides, in [17], the result was Active.
